Test results as given in PubChem BioAssay (NCI).
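Step 1: Grow cells in 96-well plates. Step 2: Expose to compound for 48 hours at 5 concentrations. Step 3: Interpolate endpoints linearly; if unreached, use highest concentration. TGI: total growth inhibition.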

How the values were obtained:
Test in all cases: NCI anticancer screen, dose series, 48 h
NCI-H226 lung = tested on: NCI-H226 lung
SK-MEL-28 melanoma = tested on: SK-MEL-28 melanoma
HL-60(TB) leukemia = tested on: HL-60(TB) leukemia
DMS 114 small cell lung = tested on: DMS 114 small cell lung
CAKI-1 renal = tested on: CAKI-1 renal
DMS 273 small cell lung = tested on: DMS 273 small cell lung
RPMI-8226 leukemia = tested on: RPMI-8226 leukemia
U251 CNS = tested on: U251 CNS
NCI-H23 lung = tested on: NCI-H23 lung
OVCAR-4 ovarian = tested on: OVCAR-4 ovarian
LOX IMVI melanoma = tested on: LOX IMVI melanoma
HOP-62 NSCLC = tested on: HOP-62 NSCLC
786-0 renal = tested on: 786-0 renal
ACHN renal = tested on: ACHN renal
DLD-1 colon = tested on: DLD-1 colon
IGROV1 ovarian = tested on: IGROV1 ovarian
TK-10 renal = tested on: TK-10 renal
SK-MEL-5 melanoma = tested on: SK-MEL-5 melanoma
KM20L2 colon = tested on: KM20L2 colon
M19-MEL melanoma = tested on: M19-MEL melanoma
M14 melanoma = tested on: M14 melanoma
SN12C renal = tested on: SN12C renal
UACC-257 melanoma = tested on: UACC-257 melanoma
CCRF-CEM leukemia = tested on: CCRF-CEM leukemia
K-562 leukemia = tested on: K-562 leukemia
NCI-H522 lung = tested on: NCI-H522 lung
OVCAR-8 ovarian = tested on: OVCAR-8 ovarian
HOP-92 NSCLC = tested on: HOP-92 NSCLC
SF-539 CNS = tested on: SF-539 CNS
A549 NSCLC = tested on: A549 NSCLC
HCT-116 colon = tested on: HCT-116 colon
SW-620 colon = tested on: SW-620 colon
RXF 393 renal = tested on: RXF 393 renal
SNB-19 CNS = tested on: SNB-19 CNS
SF-295 CNS = tested on: SF-295 CNS
SF-268 CNS = tested on: SF-268 CNS
KM12 colon = tested on: KM12 colon
NCI-H460 lung = tested on: NCI-H460 lung
OVCAR-3 ovarian = tested on: OVCAR-3 ovarian
MOLT-4 leukemia = tested on: MOLT-4 leukemia
SNB-78 CNS = tested on: SNB-78 CNS
COLO 205 colon = tested on: COLO 205 colon
RXF-631 renal = tested on: RXF-631 renal
HCC-2998 colon = tested on: HCC-2998 colon
SNB-75 CNS = tested on: SNB-75 CNS
UO-31 renal = tested on: UO-31 renal
LXFL 529 NSCLC = tested on: LXFL 529 NSCLC
OVCAR-5 ovarian = tested on: OVCAR-5 ovarian
UACC-62 melanoma = tested on: UACC-62 melanoma
A498 renal = tested on: A498 renal
SK-OV-3 ovarian = tested on: SK-OV-3 ovarian
SK-MEL-2 melanoma = tested on: SK-MEL-2 melanoma
HT29 colon = tested on: HT29 colon
MALME-3M melanoma = tested on: MALME-3M melanoma
HCT-15 colon = tested on: HCT-15 colon

Measured: TGI

S=c1nc(COc2ccc(Cl)cc2)[nH][nH]1
> 100 µM: all assays above
